The target of this assay is T1, Arabidopsis ABAR/CHLH (H subunit of Mg-chelatase) (Arabidopsis thaliana, UniProt Q9FNB0).
T1 construct: 6xHis; made in house; host or cells: Pichia methanolica (Pichia Methanolica Expression kit, Invitrogen)
T1 sequence (Q9FNB0 50-1381): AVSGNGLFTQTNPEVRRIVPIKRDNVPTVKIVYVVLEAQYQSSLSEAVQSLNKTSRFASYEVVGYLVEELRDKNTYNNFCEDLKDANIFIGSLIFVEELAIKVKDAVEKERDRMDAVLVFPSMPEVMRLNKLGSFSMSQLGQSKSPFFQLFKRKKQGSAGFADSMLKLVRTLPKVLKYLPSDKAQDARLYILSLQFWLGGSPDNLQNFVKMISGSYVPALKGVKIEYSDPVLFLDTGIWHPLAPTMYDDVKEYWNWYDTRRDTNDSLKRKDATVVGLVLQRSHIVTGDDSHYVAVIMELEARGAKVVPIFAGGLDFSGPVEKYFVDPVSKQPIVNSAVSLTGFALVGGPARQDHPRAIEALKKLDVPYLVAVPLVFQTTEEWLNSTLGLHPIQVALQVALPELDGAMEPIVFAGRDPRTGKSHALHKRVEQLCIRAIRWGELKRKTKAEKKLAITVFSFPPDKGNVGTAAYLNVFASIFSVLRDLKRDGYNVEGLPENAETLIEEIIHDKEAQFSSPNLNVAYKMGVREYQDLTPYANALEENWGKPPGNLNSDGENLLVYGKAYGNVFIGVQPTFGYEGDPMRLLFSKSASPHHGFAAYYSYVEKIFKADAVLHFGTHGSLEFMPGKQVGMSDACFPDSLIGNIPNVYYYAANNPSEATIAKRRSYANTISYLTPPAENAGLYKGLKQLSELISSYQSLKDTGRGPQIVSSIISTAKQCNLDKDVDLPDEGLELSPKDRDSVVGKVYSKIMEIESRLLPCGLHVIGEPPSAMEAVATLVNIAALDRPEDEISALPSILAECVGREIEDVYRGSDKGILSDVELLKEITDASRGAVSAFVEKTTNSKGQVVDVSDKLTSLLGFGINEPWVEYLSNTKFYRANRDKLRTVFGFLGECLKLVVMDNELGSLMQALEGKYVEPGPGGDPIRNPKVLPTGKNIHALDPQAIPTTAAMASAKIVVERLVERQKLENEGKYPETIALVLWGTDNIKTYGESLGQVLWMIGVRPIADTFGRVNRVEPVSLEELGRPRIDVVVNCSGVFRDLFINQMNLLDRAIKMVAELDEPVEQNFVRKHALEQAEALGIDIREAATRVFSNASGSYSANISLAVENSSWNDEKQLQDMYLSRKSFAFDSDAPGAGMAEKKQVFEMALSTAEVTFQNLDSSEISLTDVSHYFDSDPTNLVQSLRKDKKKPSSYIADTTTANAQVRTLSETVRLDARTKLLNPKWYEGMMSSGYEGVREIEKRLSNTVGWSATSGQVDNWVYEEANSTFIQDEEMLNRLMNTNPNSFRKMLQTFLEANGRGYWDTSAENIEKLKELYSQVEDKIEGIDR
In words: ABA binding assay with purified yeast-expressed ABAR/CHLH. The procedure: Full-length ABAR/CHLH coding sequence was PCR-amplified with forward primer 5′-[…]-3′ (SEQ ID NO:30) and reverse primer 5′-[…]-3′ (SEQ ID NO:31). The recombinant ABAR/CHLH was expressed in yeast as a fusion protein with a 6×His (SEQ ID NO:32) tag by using Pichia Methanolica Expression kit (Invitrogen) and the fusion protein was affinity-purified according to manufacturer's instructions.
The ABA-binding activity of ABAR was assayed according to the previously described procedures (Zhang, D. P. et al., Plant physiol. 128:714-725 (2002)) with modifications. The binding medium (medium A) contained 50 mM Tris-HCl (pH 7.0), 2 mM MgCl2, 1 mM CaCl2, and 250 mM mannitol. The medium for extracting the Arabidopsis natural ABAR/CHLH protein (medium B) was the medium A supplemented with 2 mM 1,4-dithiothreitol (DTT), 1 mM phenylmethyl sulfonyl fluoride (PMSF), […] leupeptin, and […] pepstin A but minus 250 mM mannitol. [^3H](+)ABA (American Radiolabeled Chemicals, 2.37×10^12 Bq mmol^−1, purity 98.4%) at 30 nM, or at a step gradient of concentrations from 0 to 70 nM (when analyzing ABA binding kinetics, see FIG. 1a, d1), together with 2 μg purified yeast-expressed ABAR/CHLH protein or 50 μg proteins of the crude extracts from two-week-old Arabidopsis seedlings, was added into the medium A. The total volume for the binding assays was adjusted to 200 μl. The mixtures were incubated at 25° C. for 30 min, and then quickly placed on ice. Following the addition of 100 μl 0.5% (w/v) Dextran T70-coated charcoal (DCC) to remove the free [^3H]ABA by adsorption, the mixtures were maintained on ice for 5 min, and then centrifuged to remove DCC before the radioactivity in the supernatant was counted. The specific binding was determined by the difference between the radioactivity bound to the immuno-purified ABAR protein or crude extracts of Arabidopsis seedlings incubated only with [^3H]ABA (total binding) and radioactivity bound in the presence of 1,000-fold molar excess of unlabeled (+)-ABA (Sigma; non-specific binding. Non-specific binding in all the assays was lower than 10% of the total binding, see FIG. 1a, d1). The unlabeled ABA was added into the incubation medium at the same time with [^3H]ABA. The ABA-binding activity of the crude ABA-binding protein from Arabidopsis seedling was expressed as the number of nanomoles of [^3H]ABA specifically bound per gram of protein, and that of the immuno-purified ABAR protein as the number of moles of [^3H]ABA per mole of protein. The stereo-specificity of the ABA-binding was assayed as described previously (Zhang, D. P. et al., Plant physiol. 128:714-725 (2002)). […] The conditions of incubation were the same as described above (the incubation medium containing 30 nM [^3H]ABA), and the two ABA isomers and (+)-ABA were assayed in the concentrations ranging from 1 to 1000-fold molar excess of [^3H]ABA.

The structures appear in SMILES notation.

A word on the Kd: it is the concentration at which binding is half-saturated. A higher Kd goes with a looser complex. `CC1=CC(=O)CC(C)(C)C1(O)/C=C/C(C)=C\C(=O)O` (centres unmarked) [ABA, abscisic acid] showed a Kd of 32 nM. The “maximum binding (Bmax)” value (pure yeast-expressed ABAR, Scatchard plot) was 1.28 mol ABA per mol of protein.
